Reference: publication PMC6407913, “DREADD Agonist 21 Is an Effective Agonist for Muscarinic-Based DREADDs in Vitro and in Vivo” (ACS Pharmacology & Translational Science, 2018)
Several values for one entry are separate records, joined by “and”; a condition that tells them apart may be missing. Equal entries are not always repeated. Where two headings read alike, the source gives them in different places.

Experiments:
[1] = target: 5-HT3 (Homo sapiens, UniProt P46098); experiment: NIMH PDSP radioligand binding, membranes
Chain of 5-HT3 (P46098 24-478, species assumed): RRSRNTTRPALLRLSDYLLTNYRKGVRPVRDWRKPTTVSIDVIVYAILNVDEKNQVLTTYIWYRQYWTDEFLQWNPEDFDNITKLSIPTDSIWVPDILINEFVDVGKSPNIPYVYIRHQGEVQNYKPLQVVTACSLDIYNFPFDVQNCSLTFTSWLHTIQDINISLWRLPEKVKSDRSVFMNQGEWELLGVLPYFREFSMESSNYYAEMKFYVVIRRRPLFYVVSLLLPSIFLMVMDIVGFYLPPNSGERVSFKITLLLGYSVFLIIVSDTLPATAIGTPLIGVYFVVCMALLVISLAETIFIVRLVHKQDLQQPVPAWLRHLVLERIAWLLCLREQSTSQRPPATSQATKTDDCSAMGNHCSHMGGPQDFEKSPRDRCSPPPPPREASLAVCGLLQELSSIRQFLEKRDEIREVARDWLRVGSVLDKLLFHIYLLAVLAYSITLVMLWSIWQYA
Procedure: (§1) Radioligand binding assays with membrane preparations to determine binding affinity were carried out as outlined before[540] and by the National Institute of Mental Health’s Psychoactive Drug Screening Program (NIMH PDSP) (https://pdsp.unc.edu/), Contract # HHSN-271–2013–00017-C. The NIMH PDSP is Directed by B.L.R. at the University of North Carolina at Chapel Hill, Chapel Hill, NC, and Project Officer Jamie Driscoll at NIMH, Bethesda, MD.

[2] = target: T1, Beta3 (Homo sapiens, UniProt P13945); experiment: NIMH PDSP radioligand binding, membranes
T1 construct: NIMH PDSP
Procedure: as §1

[3] = target: D2 (Homo sapiens, UniProt P14416); experiment: NIMH PDSP radioligand binding, membranes
Chain of D2 (P14416 whole entry): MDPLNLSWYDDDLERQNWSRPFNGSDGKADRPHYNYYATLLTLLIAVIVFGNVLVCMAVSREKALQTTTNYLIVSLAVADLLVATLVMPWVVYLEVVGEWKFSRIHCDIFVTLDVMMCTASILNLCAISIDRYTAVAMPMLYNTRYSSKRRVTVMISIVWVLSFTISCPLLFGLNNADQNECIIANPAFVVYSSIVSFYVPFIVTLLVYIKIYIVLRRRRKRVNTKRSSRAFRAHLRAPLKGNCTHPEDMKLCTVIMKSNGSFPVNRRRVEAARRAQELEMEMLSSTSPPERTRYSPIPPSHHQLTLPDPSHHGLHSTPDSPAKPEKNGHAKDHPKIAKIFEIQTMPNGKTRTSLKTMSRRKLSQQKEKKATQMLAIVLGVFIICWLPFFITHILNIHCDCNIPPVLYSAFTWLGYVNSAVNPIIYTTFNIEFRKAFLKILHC
Procedure: as §1

[4] = target: D3 (Homo sapiens, UniProt P35462); experiment: NIMH PDSP radioligand binding, membranes
Chain of D3 (P35462 whole entry): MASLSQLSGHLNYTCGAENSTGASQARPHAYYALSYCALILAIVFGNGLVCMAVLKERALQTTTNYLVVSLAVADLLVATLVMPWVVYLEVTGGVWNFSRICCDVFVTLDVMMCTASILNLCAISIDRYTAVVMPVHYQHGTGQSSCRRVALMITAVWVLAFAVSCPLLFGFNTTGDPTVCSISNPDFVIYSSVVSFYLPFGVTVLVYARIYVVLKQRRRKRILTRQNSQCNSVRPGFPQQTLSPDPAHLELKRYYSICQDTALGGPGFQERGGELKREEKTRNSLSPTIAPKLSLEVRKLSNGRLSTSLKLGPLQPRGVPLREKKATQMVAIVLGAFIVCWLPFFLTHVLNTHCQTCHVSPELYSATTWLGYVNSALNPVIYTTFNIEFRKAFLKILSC
Procedure: as §1

[5] = target: T2, Alpha1D (Homo sapiens, UniProt P25100); experiment: NIMH PDSP radioligand binding, membranes
T2 construct: NIMH PDSP
T2 sequence (P25100 1-572): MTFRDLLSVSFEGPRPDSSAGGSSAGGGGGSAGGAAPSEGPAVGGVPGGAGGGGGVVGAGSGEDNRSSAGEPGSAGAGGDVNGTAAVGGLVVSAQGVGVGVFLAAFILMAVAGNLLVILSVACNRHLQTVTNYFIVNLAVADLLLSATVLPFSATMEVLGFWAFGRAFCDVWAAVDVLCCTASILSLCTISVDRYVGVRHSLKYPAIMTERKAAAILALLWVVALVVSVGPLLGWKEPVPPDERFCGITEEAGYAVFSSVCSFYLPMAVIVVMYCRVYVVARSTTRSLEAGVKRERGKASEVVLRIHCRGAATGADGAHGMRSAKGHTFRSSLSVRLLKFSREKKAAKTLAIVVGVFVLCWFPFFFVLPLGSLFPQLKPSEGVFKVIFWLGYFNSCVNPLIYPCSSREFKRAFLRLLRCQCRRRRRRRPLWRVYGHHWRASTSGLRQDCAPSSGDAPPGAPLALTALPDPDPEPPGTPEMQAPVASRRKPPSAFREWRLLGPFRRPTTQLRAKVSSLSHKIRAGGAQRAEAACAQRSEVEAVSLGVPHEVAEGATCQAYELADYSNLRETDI
Procedure: as §1

[6] = target: 5-HT2B (Homo sapiens, UniProt P41595); experiment: NIMH PDSP radioligand binding, membranes
Chain of 5-HT2B (P41595 whole entry, species assumed): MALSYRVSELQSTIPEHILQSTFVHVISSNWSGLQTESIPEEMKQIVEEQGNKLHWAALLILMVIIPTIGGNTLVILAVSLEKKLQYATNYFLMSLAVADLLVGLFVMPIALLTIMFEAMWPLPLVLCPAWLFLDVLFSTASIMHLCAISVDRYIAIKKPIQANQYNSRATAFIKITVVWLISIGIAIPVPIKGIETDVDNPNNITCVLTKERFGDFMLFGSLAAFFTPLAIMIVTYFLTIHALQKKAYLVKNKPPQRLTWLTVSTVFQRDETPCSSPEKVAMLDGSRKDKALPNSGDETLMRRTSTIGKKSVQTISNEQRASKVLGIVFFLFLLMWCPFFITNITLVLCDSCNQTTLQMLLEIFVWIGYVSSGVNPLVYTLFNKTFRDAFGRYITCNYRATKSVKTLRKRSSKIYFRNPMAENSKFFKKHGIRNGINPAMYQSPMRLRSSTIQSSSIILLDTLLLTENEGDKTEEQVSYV
Procedure: as §1

[7] = target: T3, Alpha1A (Homo sapiens, UniProt P35348); experiment: NIMH PDSP radioligand binding, membranes
T3 construct: NIMH PDSP
T3 sequence (P35348 1-466): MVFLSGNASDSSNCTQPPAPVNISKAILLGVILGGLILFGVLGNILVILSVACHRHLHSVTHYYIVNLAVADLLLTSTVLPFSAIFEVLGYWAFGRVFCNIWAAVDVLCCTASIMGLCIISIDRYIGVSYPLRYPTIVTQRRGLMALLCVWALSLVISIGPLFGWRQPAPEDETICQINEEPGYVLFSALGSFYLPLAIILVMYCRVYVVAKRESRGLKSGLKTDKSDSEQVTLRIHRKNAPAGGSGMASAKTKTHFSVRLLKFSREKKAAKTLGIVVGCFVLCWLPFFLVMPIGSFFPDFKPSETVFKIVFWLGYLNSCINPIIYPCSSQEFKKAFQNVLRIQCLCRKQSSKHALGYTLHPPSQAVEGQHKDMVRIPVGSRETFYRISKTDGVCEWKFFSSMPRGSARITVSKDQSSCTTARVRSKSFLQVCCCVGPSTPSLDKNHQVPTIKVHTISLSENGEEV
Procedure: as §1

[8] = target: Beta2 (Homo sapiens, UniProt P07550); experiment: NIMH PDSP radioligand binding, membranes
Procedure: as §1

[9] = target: T4, 5-HT6 (Homo sapiens, UniProt P50406); experiment: NIMH PDSP radioligand binding, membranes
T4 construct: NIMH PDSP
T4 sequence (P50406 whole entry, species assumed): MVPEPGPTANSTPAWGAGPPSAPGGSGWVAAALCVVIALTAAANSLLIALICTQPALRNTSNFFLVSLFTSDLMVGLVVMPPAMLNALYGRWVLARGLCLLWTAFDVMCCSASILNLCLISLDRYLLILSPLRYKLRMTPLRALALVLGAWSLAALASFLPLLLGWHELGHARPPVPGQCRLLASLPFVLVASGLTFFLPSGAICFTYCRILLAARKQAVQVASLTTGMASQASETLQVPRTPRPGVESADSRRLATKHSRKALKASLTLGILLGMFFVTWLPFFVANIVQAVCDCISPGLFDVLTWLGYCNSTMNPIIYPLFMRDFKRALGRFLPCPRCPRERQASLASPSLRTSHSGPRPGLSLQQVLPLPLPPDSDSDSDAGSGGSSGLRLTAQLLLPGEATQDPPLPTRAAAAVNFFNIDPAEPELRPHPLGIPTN
Procedure: as §1

[10] = target: M3 (Homo sapiens, UniProt P20309); experiment: NIMH PDSP radioligand binding, membranes
Chain of M3 (P20309 whole entry): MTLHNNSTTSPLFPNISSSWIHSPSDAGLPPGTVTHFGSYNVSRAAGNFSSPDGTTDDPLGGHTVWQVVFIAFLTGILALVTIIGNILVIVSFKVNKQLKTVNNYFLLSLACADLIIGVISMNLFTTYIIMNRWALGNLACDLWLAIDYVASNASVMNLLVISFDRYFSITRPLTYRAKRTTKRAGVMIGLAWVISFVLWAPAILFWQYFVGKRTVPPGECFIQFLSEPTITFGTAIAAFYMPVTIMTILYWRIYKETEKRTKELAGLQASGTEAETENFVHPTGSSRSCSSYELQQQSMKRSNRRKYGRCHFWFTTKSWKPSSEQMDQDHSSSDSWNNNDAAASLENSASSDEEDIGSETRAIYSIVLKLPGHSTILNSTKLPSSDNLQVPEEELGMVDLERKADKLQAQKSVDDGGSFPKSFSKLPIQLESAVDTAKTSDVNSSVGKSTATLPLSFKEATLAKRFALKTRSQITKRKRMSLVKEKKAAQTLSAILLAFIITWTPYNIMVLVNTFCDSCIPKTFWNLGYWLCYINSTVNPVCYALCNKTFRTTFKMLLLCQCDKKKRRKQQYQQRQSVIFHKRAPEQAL
Procedure: as §1

[11] = target: T5, CB2 (Homo sapiens, UniProt P34972); experiment: NIMH PDSP radioligand binding, membranes
T5 construct: NIMH PDSP
T5 sequence (P34972 whole entry, species assumed): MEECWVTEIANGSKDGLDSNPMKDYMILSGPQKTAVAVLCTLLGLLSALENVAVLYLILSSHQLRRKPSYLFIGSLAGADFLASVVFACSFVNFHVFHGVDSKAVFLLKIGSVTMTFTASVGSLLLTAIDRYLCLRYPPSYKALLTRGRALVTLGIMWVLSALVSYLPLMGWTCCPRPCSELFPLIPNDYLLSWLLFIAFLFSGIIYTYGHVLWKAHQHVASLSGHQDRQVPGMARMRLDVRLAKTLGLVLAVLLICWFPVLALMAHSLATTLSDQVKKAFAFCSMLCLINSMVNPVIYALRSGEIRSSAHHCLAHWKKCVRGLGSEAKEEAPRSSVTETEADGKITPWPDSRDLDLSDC
Procedure: as §1

[12] = target: 5-HT1E (Homo sapiens, UniProt P28566); experiment: NIMH PDSP radioligand binding, membranes
Chain of 5-HT1E (P28566 whole entry, species assumed): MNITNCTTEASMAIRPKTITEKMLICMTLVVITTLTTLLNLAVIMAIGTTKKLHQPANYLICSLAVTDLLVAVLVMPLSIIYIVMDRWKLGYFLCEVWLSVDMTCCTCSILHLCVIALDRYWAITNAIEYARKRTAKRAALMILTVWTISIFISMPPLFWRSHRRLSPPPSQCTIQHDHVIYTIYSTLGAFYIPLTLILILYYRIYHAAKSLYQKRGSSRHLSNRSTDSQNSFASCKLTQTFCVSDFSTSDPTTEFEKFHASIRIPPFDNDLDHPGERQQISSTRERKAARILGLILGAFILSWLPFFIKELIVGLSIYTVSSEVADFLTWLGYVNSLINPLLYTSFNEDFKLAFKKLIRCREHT
Procedure: as §1

[13] = target: T6, Beta1 (Homo sapiens, UniProt P08588); experiment: NIMH PDSP radioligand binding, membranes
T6 construct: NIMH PDSP
Procedure: as §1

[14] = target: T7, 5-HT1B (Homo sapiens, UniProt P28222); experiment: NIMH PDSP radioligand binding, membranes
T7 construct: NIMH PDSP
T7 sequence (P28222 whole entry, species assumed): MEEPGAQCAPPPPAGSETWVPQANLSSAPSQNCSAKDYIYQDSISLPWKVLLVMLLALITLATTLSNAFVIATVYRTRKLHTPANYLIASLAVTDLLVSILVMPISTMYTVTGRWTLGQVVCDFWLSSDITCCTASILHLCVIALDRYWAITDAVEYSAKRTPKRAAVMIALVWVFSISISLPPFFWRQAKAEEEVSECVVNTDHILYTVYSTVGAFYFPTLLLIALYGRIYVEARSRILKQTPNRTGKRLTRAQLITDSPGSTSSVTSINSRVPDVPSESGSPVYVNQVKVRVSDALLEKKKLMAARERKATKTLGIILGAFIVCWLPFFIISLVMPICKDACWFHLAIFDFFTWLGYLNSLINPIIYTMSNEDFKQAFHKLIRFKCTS
Procedure: as §1

[15] = target: M5 (Homo sapiens, UniProt P08912); experiment: NIMH PDSP radioligand binding, membranes
Chain of M5 (P08912 whole entry): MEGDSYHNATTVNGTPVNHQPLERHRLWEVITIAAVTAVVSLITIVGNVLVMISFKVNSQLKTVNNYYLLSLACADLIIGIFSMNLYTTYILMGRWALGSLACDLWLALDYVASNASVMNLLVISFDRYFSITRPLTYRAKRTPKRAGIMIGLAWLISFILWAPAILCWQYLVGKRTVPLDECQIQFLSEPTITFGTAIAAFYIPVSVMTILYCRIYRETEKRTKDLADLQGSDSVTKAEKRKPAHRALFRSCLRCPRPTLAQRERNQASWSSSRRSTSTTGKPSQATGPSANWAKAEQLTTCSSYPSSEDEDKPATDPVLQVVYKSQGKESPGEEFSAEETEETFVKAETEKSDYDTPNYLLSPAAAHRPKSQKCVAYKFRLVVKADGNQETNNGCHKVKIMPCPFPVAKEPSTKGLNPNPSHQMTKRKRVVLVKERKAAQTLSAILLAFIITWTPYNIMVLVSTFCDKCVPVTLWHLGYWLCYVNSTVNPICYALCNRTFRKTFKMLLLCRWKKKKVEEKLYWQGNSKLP
Procedure: as §1

[16] = target: D4 (Homo sapiens, UniProt P21917); experiment: NIMH PDSP radioligand binding, membranes
Chain of D4 (P21917 whole entry): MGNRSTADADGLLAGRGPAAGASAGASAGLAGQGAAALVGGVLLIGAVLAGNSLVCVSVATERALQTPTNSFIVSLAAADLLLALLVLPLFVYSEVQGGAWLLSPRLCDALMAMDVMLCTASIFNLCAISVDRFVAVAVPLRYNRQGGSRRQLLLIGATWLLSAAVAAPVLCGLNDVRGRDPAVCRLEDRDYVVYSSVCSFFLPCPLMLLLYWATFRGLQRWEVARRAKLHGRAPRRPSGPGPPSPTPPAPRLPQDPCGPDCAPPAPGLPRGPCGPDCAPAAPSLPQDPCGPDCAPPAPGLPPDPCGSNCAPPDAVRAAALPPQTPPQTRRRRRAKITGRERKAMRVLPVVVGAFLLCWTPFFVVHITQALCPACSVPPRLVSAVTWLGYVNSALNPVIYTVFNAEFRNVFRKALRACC
Procedure: as §1

[17] = brain protein binding (brain homogenate); assay type: in vitro ADME, mouse
[18] = plasma protein binding; assay type: in vitro ADME
[19] = read-out: Ki #1-#5 (individual assays)
[20] = read-out: log Ki (individual assays) (converted)

c1ccc2c(c1)N=C(N1CCNCC1)c1ccccc1N2 [C21, 11-(1-piperazinyl)-5H-dibenzo[b,e][1,4]diazepine]
Ki ([1]; read-out: Ki): 360 nM
Ki [1, 19]: 858 nM and 321 nM and 169 nM
Ki ([2]; read-out: Ki): > 10000 nM
Ki [2, 19]: > 10000 nM
Ki ([3]; read-out: Ki): 4570 nM
Ki [3, 19]: 2750 nM and 4740 nM and 7340 nM
Ki ([4]; read-out: Ki): 870 nM
Ki [4, 19]: 1520 nM and 1160 nM and 372 nM
log Ki (individual assays) [5]: <5
Ki ([5]; read-out: Ki): > 10000 nM
Ki [5, 19]: > 10000 nM
Ki ([6]; read-out: Ki): 32.7 nM
Ki [6, 20]: 26.9 nM and 38 nM and 28.2 nM and 39.8 nM
Ki ([6]; read-out: pKi (mean) (converted)): 33.1 nM
log Ki (individual assays) [7]: <5
Ki ([7]; read-out: Ki): > 10000 nM
Ki [7, 19]: > 10000 nM
Ki ([8]; read-out: Ki): > 10000 nM
Ki [8, 19]: > 10000 nM
Ki ([9]; read-out: Ki): 266 nM
Ki [9, 19]: 421 nM and 193 nM and 232 nM
Ki ([10]; read-out: Ki): 270 nM
Ki [10, 19]: 144 nM and 485 nM and 281 nM
Ki ([11]; read-out: Ki): > 10000 nM
Ki [11, 19]: > 10000 nM
Ki ([12]; read-out: Ki): 206 nM
Ki [12, 19]: 325 nM and 263 nM and 68 nM and 117 nM and 547 nM
Ki ([13]; read-out: Ki): > 10000 nM
Ki [13, 19]: > 10000 nM
Ki ([14]; read-out: Ki): 3640 nM
Ki [14, 19]: 4590 nM and 4530 nM and 2320 nM
Ki [14, 20]: 4570 nM
Ki ([15]; read-out: Ki): 421 nM
Ki [15, 19]: 175 nM and 395 nM and 1080 nM
Ki ([16]; read-out: Ki): 2050 nM
Ki [16, 19]: 1380 nM and 896 nM and 4050 nM and 3570 nM
unbound in brain ([17]; brain): 4.9%
fraction unbound ([17]; mouse, brain homogenate): 0.05
fraction unbound [18]: 0.049
